Biological target: Glycogen synthase kinase-3 beta (Homo sapiens, UniProt P49841)
Test: GSK3beta kinase inhibitor potency, dose response, biochemical, luminescence, cell-free homogeneous, retest (AID 434954)

Sequence of Glycogen synthase kinase-3 beta (P49841 whole entry): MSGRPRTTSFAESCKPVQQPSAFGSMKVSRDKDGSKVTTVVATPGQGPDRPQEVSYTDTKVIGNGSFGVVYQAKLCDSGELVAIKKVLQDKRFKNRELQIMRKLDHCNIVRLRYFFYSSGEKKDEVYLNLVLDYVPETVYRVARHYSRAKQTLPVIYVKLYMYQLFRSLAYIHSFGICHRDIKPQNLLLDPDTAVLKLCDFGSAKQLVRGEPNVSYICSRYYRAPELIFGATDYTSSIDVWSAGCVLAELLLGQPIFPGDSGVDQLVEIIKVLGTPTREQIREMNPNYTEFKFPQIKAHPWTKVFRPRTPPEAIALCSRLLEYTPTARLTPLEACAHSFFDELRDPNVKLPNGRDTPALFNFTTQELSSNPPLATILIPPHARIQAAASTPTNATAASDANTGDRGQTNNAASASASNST

| Compound | EC50 [µM] |
| --- | --- |
| C[C@@H]1O[C@@H](Oc2c(-c3cc(O)c(O)c(O)c3)oc3cc(O)cc(=O)c-3c2O)[C@H](O)[C@H](O)[C@H]1O [3-[(2S,3R,4R,5R,6S)-6-methyl-3,4,5-tris(oxidanyl)oxan-2-yl]oxy-5,7-bis(oxidanyl)-2-[3,4,5-tris(oxidanyl)phenyl]chromen-4-one] | > 300 |
| C=CCNC(=O)c1onc(CSc2cccc(OC)c2)c1C(=O)NCC=C [3-[(3-methoxyphenyl)sulfanylmethyl]-N4,N5-bis(prop-2-enyl)-1,2-oxazole-4,5-dicarboxamide] | > 300 |
| Cc1ccc(CSc2ccc(-c3cccs3)nn2)cc1 [3-[(4-methylphenyl)methylsulfanyl]-6-thiophen-2-ylpyridazine] | > 300 |
| CC1(C)CC(=O)C=C(Nc2ccc(Br)cn2)C1 [3-[(5-bromopyridin-2-yl)amino]-5,5-dimethylcyclohex-2-en-1-one] | > 300 |
| COC(=O)c1sccc1NC(=O)c1ccc(Br)s1 [3-[(5-bromothiophene-2-carbonyl)amino]thiophene-2-carboxylic acid methyl ester] | > 300 |
| O=C(O)CCN1C(=O)/C(=C\c2ccc(-c3nc4ccccc4s3)o2)SC1=S [3-[(5E)-5-[[5-(1,3-benzothiazol-2-yl)-2-furanyl]methylidene]-4-oxo-2-sulfanylidene-3-thiazolidinyl]propanoic acid] | > 300 |
| C=CCn1cc(/C=C/c2cc[n+](C)cc2)c2ccccc21 [3-[(E)-2-(1-methylpyridin-1-ium-4-yl)ethenyl]-1-prop-2-enyl-indole;iodide] | > 300 |
| Cc1ncc(C=C2C(=O)Nc3ccccc32)[nH]1 [3-[(Z)-(2-methyl-1H-imidazol-4-yl)methylidene]-1H-indol-2-one] | > 300 |
| O=C1OCCC1Sc1nnc(-c2ccc(O)cc2)o1 (stereo unspecified) [3-[[2-(4-oxo-1-cyclohexa-2,5-dienylidene)-3H-1,3,4-oxadiazol-5-yl]thio]-2-oxolanone] | 14.3 |
| COc1cccc(-n2c(Cn3nc(C(F)F)cc3C(F)F)n[nH]c2=S)c1 [3-[[3,5-bis(difluoromethyl)-1-pyrazolyl]methyl]-4-(3-methoxyphenyl)-1H-1,2,4-triazole-5-thione] | > 300 |
| OCCCNc1nccc(-c2cc(Nc3cccc(Cl)c3)ncn2)n1 [3-[[4-[6-[(3-chlorophenyl)amino]pyrimidin-4-yl]pyrimidin-2-yl]amino]propan-1-ol] | 0.0779 |
| COc1ccc(OC)c(Nc2nc(NCCCN(C)C)nc(N)c2[N+](=O)[O-])c1 [3-[[4-amino-6-(2,5-dimethoxyanilino)-5-nitro-pyrimidin-2-yl]amino]propyl-dimethyl-amine] | 2.74 |
| COc1ccc(C2C(C(C)=O)C(=O)C(=O)N2c2nccs2)c(OC)c1 (stereo unspecified) [3-acetyl-2-(2,4-dimethoxyphenyl)-4-hydroxy-1-(1,3-thiazol-2-yl)-2H-pyrrol-5-one] | > 300 |
| COc1cccc2cc(C(C)=O)c(=O)oc12 [3-acetyl-8-methoxy-2H-chromen-2-one] | > 300 |
| Nn1c(-c2cccs2)nc2sc3c(c2c1=O)CCCC3 [3-azanyl-2-thiophen-2-yl-5,6,7,8-tetrahydro-[1]benzothiolo[2,3-d]pyrimidin-4-one] | > 300 |
| c1ccc(Cn2c(-c3ccco3)nc3nc4ccccc4nc32)cc1 [3-benzyl-2-(furan-2-yl)imidazo[4,5-b]quinoxaline] | > 300 |
| O=NCc1ccc(OCc2ccccc2)c(Cl)c1 [3-chloro-4-phenylmethoxybenzaldehyde oxime] | > 300 |
| Clc1ccc2c(c1)Nc1ccccc1CC2 [3-chloro-10,11-dihydro-5H-dibenzo[b,f]azepine] | > 300 |
| Cc1cc2cc(CN(CCCN3CCOCC3)C(=O)NC3CCCCC3)c(=O)[nH]c2cc1C [3-cyclohexyl-1-[(6,7-dimethyl-2-oxo-1H-quinolin-3-yl)methyl]-1-(3-morpholin-4-ylpropyl)urea] | > 300 |
| CCOc1cccc(C(=O)Nc2cccc(-c3nc4ncccc4o3)c2C)c1 [3-ethoxy-N-[2-methyl-3-([1,3]oxazolo[4,5-b]pyridin-2-yl)phenyl]benzamide] | > 300 |
| Cc1ccc2cc(NC(=O)c3cccc(F)c3)ccc2n1 [3-fluoro-N-(2-methyl-6-quinolinyl)benzamide] | > 300 |
| COc1cccc(C2c3c([nH]n(-c4ccccc4)c3=O)N=C3CCCC(=O)C32)c1 (stereo unspecified) [3-hydroxy-4-(3-methoxyphenyl)-2-phenyl-2,4,6,7,8,9-hexahydro-5H-pyrazolo[3,4-b]quinolin-5-one] | > 300 |
| O=c1oc2cc(O)ccc2c2c1CCCC2 [3-hydroxy-7,8,9,10-tetrahydro-6H-benzo[c]chromen-6-one] | > 300 |
| Cc1ccc(S(=O)(=O)NNC(=O)c2cccc(O)c2)cc1 [3-hydroxy-N'-(4-methylphenyl)sulfonylbenzohydrazide] | > 300 |
| CCOC(=O)CC(=O)CSc1ccc2nnc(-c3ccc(C)cc3)n2n1 [3-keto-4-[[3-(p-tolyl)-[1,2,4]triazolo[4,3-b]pyridazin-6-yl]thio]butyric acid ethyl ester] | 14.3 |
| COc1cccc(C(=O)Nc2nc(-c3ccncc3)cs2)c1 [3-methoxy-N-(4-pyridin-4-yl-1,3-thiazol-2-yl)benzamide] | > 300 |

| Compound | EC50 [µM] |
| --- | --- |
| COc1cccc(C(=O)NCCCNC(=O)c2cccc(OC)c2)c1 [3-methoxy-N-[3-[[(3-methoxyphenyl)-oxomethyl]amino]propyl]benzamide] | > 300 |
| COc1cccc(C(=O)N/N=C/c2ccc(Oc3ccc([N+](=O)[O-])cn3)c(OC)c2)c1 [3-methoxy-N-[[3-methoxy-4-(5-nitropyridin-2-yl)oxyphenyl]methylideneamino]benzamide] | > 300 |
| Cc1ncsc1CCSc1nc2ccccc2c(=O)n1C [3-methyl-2-{[2-(4-methyl-1,3-thiazol-5-yl)ethyl]thio}-4(3H)-quinazolinone] | 18.8 |
| CCOC(=O)c1sc(NC(=O)CCN2C(=O)c3cccc([N+](=O)[O-])c3C2=O)c(C(=O)OCC)c1C [3-methyl-5-[[3-(4-nitro-1,3-dioxo-2-isoindolyl)-1-oxopropyl]amino]thiophene-2,4-dicarboxylic acid diethyl ester] | > 300 |
| Cc1ccnc(SCCn2c(N3CCOCC3)nc3c2c(=O)[nH]c(=O)n3C)n1 [3-methyl-7-[2-(4-methylpyrimidin-2-yl)sulfanylethyl]-8-morpholin-4-ylpurine-2,6-dione] | > 300 |
| O=C(NCCCN1CCCCC1)c1ccc2c(c1)NC(=O)C(N1CCCCC1)S2 (stereo unspecified) [3-oxo-2-piperidin-1-yl-N-(3-piperidin-1-ylpropyl)-4H-1,4-benzothiazine-6-carboxamide] | > 300 |
| O=C(OCCCN1CCCCC1)c1ccc(O)cc1 [3-piperidin-1-ylpropyl 4-hydroxybenzoate] | > 300 |
| O=C(O)C1C2C=CC(O2)C1C(=O)NCc1ccc(Cl)cc1 (stereo unspecified) [3-{[(4-chlorobenzyl)amino]carbonyl}-7-oxabicyclo[2.2.1]hept-5-ene-2-carboxylic acid] | > 300 |
| Cc1nc(Nc2ccccc2)sc1C [4,5-dimethyl-N-phenyl-1,3-thiazol-2-amine] | > 300 |
| Cc1cccc(N2CCN(C(=O)c3csc4ccccc34)CC2C)c1 (stereo unspecified) [4-(1-benzothien-3-ylcarbonyl)-2-methyl-1-(3-methylphenyl)piperazine] | > 300 |
| CCOC(=O)c1cnc2ccc(C(=O)OC)cc2c1Nc1ccc2c(c1)OCCO2 [4-(2,3-Dihydro-benzo[1,4]dioxin-6-ylamino)-quinoline-3,6-dicarboxylic acid 3-ethyl ester 6-methyl ester] | 9.12 |
| CC1CCCCN1c1ncnc2ccccc12 (stereo unspecified) [4-(2-Methyl-piperidin-1-yl)-quinazoline] | > 300 |
| COc1cc(CN=O)ccc1OCc1ccccc1Cl [4-(2-chlorobenzyl)oxy-3-methoxy-benzaldoxime] | > 300 |
| N=C(NO)c1ccc(Oc2ccccc2Cl)c([N+](=O)[O-])c1 [4-(2-chlorophenoxy)-N'-hydroxy-3-nitrobenzenecarboximidamide] | > 300 |
| CC1CCCCN1c1cc(C#N)c(C#N)cc1[N+](=O)[O-] (stereo unspecified) [4-(2-methyl-1-piperidinyl)-5-nitrophthalonitrile] | > 300 |
| Cn1c(=O)c2[nH]c(CCCC(=O)O)nc2n(Cc2ccccc2)c1=S [4-(3-benzyl-1-methyl-6-oxo-2-sulfanylidene-7H-purin-8-yl)butanoic acid] | 5.17 |
| CCOc1cc(C2C(C(=O)N3CCCCC3)=C(C)N=C3CC(C)(C)CC(=O)C32)ccc1O (stereo unspecified) [4-(3-ethoxy-4-hydroxyphenyl)-2,7,7-trimethyl-3-[oxo(1-piperidinyl)methyl]-1,4,6,8-tetrahydroquinolin-5-one] | > 300 |
| COc1cccc(C2C3=C(CC(C)(C)CC3=O)N=C(C)C2C#N)c1 (stereo unspecified) [4-(3-methoxyphenyl)-2,7,7-trimethyl-5-oxo-1,4,5,6,7,8-hexahydro-3-quinolinecarbonitrile] | > 300 |
| NS(=O)(=O)c1ccc(Nc2nc(-c3ccc(O)cc3O)cs2)cc1 [4-(4-(2,4-dihydroxyphenyl)thiazol-2-ylamino)benzenesulfonamide] | 5.73 |
| NC(=O)c1ccc(Oc2ccc(Cl)c3ccccc23)c([N+](=O)[O-])c1 [4-(4-chloronaphthalen-1-yl)oxy-3-nitrobenzamide] | > 300 |
| CN(C)c1nc(-c2ccccc2)nc(-c2ccc(Cl)cc2)c1C#N [4-(4-chlorophenyl)-6-(dimethylamino)-2-phenylpyrimidine-5-carbonitrile] | > 300 |
| Cc1[nH]nc2c1C(c1ccc(F)cc1)C1C(=O)CC(C)(C)CC1=N2 (stereo unspecified) [4-(4-fluorophenyl)-3,7,7-trimethyl-1,4,6,7,8,9-hexahydro-5H-pyrazolo[3,4-b]quinolin-5-one] | 3.93 |
| O=S(=O)(c1ccc(F)cc1)c1nc(-c2ccco2)oc1Nc1ccccc1 [4-(4-fluorophenyl)sulfonyl-2-(furan-2-yl)-N-phenyl-1,3-oxazol-5-amine] | > 300 |
| COc1cc(C2C3=C(CC(C)(C)CC3=O)N=C(C)C2C#N)ccc1O (stereo unspecified) [4-(4-hydroxy-3-methoxyphenyl)-2,7,7-trimethyl-5-oxo-1,4,6,8-tetrahydroquinoline-3-carbonitrile] | > 300 |
| COc1ccc(COC(=O)C2C(C)=NC(=O)NC2c2ccc(O)c(OC)c2)cc1 (stereo unspecified) [4-(4-hydroxy-3-methoxyphenyl)-6-methyl-2-oxo-3,4-dihydro-1H-pyrimidine-5-carboxylic acid (4-methoxyphenyl)methyl ester] | > 300 |
